How the values were obtained:
[1] = Chemical stability of DB4 in culture medium by mass spectrometry; assay type: physicochemical; details: 50 μM, 37° C., 72 hr vs 0 hr
Procedure: DB4 remained mostly active and intact after 72 hr in the culture medium. The dose response curve of DB4 in DNA synthesis inhibition in PEO4 cells was generated as determined by EdU flow cytometric analysis. […] PEO4 cells were treated with these media for 24 hr. The level of DNA synthesis inhibition was determined to interpolate and calculate % DB4 remaining compared with the control at 0 hr. FIG. 5B depicts representative results for remaining DB4 after DB4 (MW=496.1) was added to the culture medium at 50 μM for 0 hr, 24 hr, 48 hr, or 72 hr at 37° C. FIG. 5C depicts representative mass spectrum obtained from mass spectrometry that was run to detect the level of the 496.13 ion at 0 hr. FIG. 5D depicts representative mass spectrum obtained from mass spectrometry that was run to detect the level of the 496.13 ion at 72 hr.
To ensure that DB4 remained chemically stable, the time course study was performed by determining the potency of DB4 following a pre-incubation in the cell-free medium at 37° C. for up to 72 hr. Cells were treated for 24 hr with the medium containing pre-incubated DB4 and DNA synthesis was determined by the EdU incorporation assay.
DB4 was dissolved in DMEM medium at 50 μM and incubated for 0 hr, 24 hr, 48 hr, and 72 hr at 37° C. and flash frozen after incubation. […]

PEO1 cells = assay: MTS cytotoxicity assay, sensitization to olaparib, PEO1; assay type: cell-based; details: 30 μM, olaparib 72 hr
Procedure: Cells were pre-treated with 30 μM DB4 for 1 hr and then treated with various concentrations of olaparib for 72 hr. Cell survival was determined by MTS cytotoxicity assay. Data are means±SD (N=3-4). […] EOB calculation was used to quantify the synergy of the combination of DB4 and various concentrations of olaparib in PEO1 or PEO4 cells as shown in FIG. 8A. EOB>0, synergism; EOB=0, additivity; EOB<0, antagonism. […] Cells were pre-treated with 30 μM DB4-F for 1 hr and then treated with various concentrations of olaparib for 72 hr. Cell survival was determined by MTS cytotoxicity assay. Data are means±SD (N=3-4). […] EOB calculation was used to quantify the synergy of the combination of DB4-F and various concentrations of olaparib in PEO1 or PEO4 cells as shown in FIG. 8B. EOB>0, synergism; EOB=0, additivity; EOB<0, antagonism. […] Cell survival was determined by MTS cytotoxicity assay. […] Caspase 3/7 activity was expressed as RLU per μg/μl protein. […] Caspase 3/7 activity was expressed as RLU per μg/μl protein. […] Cells were treated and caspase 3/7 activity was measured as described in FIG. 8G and FIG. 8H.
It was also examined whether DB4 sensitized BRCA-wild type EOC cells to a PARP inhibitor. BRCA2-mutated PEO1 and BRCA2-wild type PEO4 cells were treated with DB4 at 30 μM in combination with various concentrations of olaparib and cell survival was determined. […]

PEO1-OR cells = assay: MTS cytotoxicity assay, sensitization to olaparib, PEO1-OR; assay type: cell-based
[2] = cited from earlier work

SMILES | level of DB4 by mass spectrometry [1] | sensitization to olaparib (cell survival) (PEO1 cells) | sensitization to olaparib (cell survival) (PEO1-OR cells; DB4 at 5 μM) | sensitization to olaparib (cell survival) (PEO1-OR cells; DB4 at 20 μM) | side effects ([2]; patients) | clinical response rates ([2]; phase I/II studies)
C=CCn1c(SCc2cccc(Cl)c2)nnc1C1CCN(Cc2nc3ccccc3s2)CC1 [DB4, 2-[(4-{4-allyl-5-[(3-chlorobenzyl)thio]-4H-1,2,4-triazol-3-yl}-1-piperidinyl)methyl]-1,3-benzothiazole] | remained similar to that of the 0 hr control | minimal effects | partially sensitized | near-fully sensitized |  | 
NC(=S)NN=Cc1ncccc1N [triapine, 3-aminopyridine-2-carboxaldehyde-thiosemicarbazone, reference compound] |  |  |  |  | methemoglobinemia and dyspnea | more than 80%
